The results in this text go back to ChEMBL document CHEMBL3638922, “2-amino-3-sulphonyl-tetrahydro-pyrazolo[1,5-A]pyrido-pyrimidine antagonists of serotonin 5-HT6 receptors, methods for the production and use thereof” (2013).

The assay deals with 5-hydroxytryptamine receptor 6 (Homo sapiens, UniProt P50406). Put plainly: Radioligand Binding Assay: The screening of the disclosed compounds for their potential ability to interact with serotonin 5-HT6 receptors was carried out b the method of radioligand binding.
Chain of 5-hydroxytryptamine receptor 6 (P50406 whole entry): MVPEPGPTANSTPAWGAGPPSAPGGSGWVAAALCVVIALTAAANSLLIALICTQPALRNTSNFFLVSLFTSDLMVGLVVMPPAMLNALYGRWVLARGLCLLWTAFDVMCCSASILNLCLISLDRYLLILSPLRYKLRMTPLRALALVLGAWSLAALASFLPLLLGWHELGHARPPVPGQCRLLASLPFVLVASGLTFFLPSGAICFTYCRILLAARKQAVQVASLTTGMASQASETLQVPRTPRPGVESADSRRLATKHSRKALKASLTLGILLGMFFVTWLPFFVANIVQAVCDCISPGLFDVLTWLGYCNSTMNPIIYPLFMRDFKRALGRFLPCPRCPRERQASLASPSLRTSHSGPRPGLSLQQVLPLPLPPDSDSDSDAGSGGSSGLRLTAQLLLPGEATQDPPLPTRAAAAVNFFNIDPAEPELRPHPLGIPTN

In turn, `CNc1nn2c3c(cnc2c1S(=O)(=O)c1ccccc1)CN(C)CC3` showed an IC50 of 0.837 nM.
`CNc1nn2cc3c(nc2c1S(=O)(=O)c1ccccc1)CCN(C)C3` showed an IC50 of 7.02 nM and a Ki of 3.26 nM.
